# Measured values reported in US20160229835A1, “NOVEL PYRIDYLOXYACETYL TETRAHYDROISOQUINOLINE COMPOUNDS USEFUL AS NAMPT INHIBITORS” (ELI LILLY AND COMPANY, priority 2013, published 2016).
# Assays:
# H1155 tumor model = experiment: Efficacy in Xenograft Tumor Models, NCI-H1155; assay type: in vivo; settings: nude mice, 4-day-on and 3-day-off schedule for 17 days
# Experimental: The purpose of this assay is to measure reduction in tumor volume in response to test compound administration. A2780 and NCI-H1155 (NSCLC) cells are grown as described above for IVTI studies. Cells are harvested and injected subcutaneously onto the rear flank of nude mice. When tumors are established (7-21 days after implant), animals are randomized and grouped into control and test groups (7 animals/group). The test compound is formulated in 20% of CAPTISOL® and 25 mM of phosphate buffer, pH 2. Test compound and vehicle (20% of CAPTISOL® and 25 mM of phosphate buffer, pH 2 without compound) are administered by oral gavage. Tumor response is determined by tumor volume measurement (caliper) performed twice a week during the course of treatment and reported as percent of tumor volume of each treatment group divided by tumor volume of the vehicle control group. […] For example, Example 1 in H1155 tumor model, when dosed at 10 mg/kg (twice a day (BID) on a 4-day-on and 3-day-off schedule for 17 days, a T/C of 5.5 (P value<0.001 based on T-test) is achieved; when dosed at 20 mg/kg on the same schedule, a T/C of −81.1 (P value<0.001 based on T-test) is achieved. Example 2 in H1155 tumor model, when dosed at 8 mg/kg (twice a day (BID) on a 4-day-on and 3-day-off schedule for 17 days, a T/C of 5.2 (P value<0.001 based on T-test) is achieved; when dosed at 16 mg/kg on the same schedule, a T/C of −82.7 (P value<0.001 based on T-test) is achieved. Example 1 in A2780 tumor model, when dosed at 10 mg/kg (twice a day (BID) on a 4-day-on and 3-day-off schedule for 17 days, a T/C of 41.7 (P value<0.007 based on T-test) is achieved; when dosed at 20 mg/kg on the same schedule, a T/C of 2.4 (P value<0.001 based on T-test) is achieved.
# A2780 cells = experiment: A2780 Proliferation Assay ±NAM (Nicotinamide); assay type: cell-based; settings: Homo sapiens, A2780, 72 h, 10 mM nicotinamide added to the growth medium, read-out: IC50 (proliferation of A2780 cells with 10 mM nicotinamide)
# Experimental: The purpose of this assay is to measure the ability of a compound to inhibit proliferation of A2780 cells (the NCI-DCTD Tumor repository) dependent on the NAMPT-mediated NAD^+ formation in the presence or absence of higher concentrations of NAM (10 mM) in vitro. The A2780 cell proliferation assay uses assay-ready frozen cells. To prepare assay-ready frozen A2780 cells, A2780 cells, an ovarian cancer cell line, are cultured in growth media containing RPMI 1640 (Gibco 30-2001) supplemented with 10% FBS, in T-150 flasks for 3-4 days. Cells are then treated with 4 mL of 0.25% (v/v) trypsin for 1 minute (Hyclone SH30042). Trypsin-treated cells are then diluted with 10 mL of growth media, and the cell slurry is gently mixed and then decanted to a centrifuge tube. Cells are counted and then pelleted by centrifugation at 1400 rpm for 5 minutes. After centrifugation the supernatant is removed and the cell pellets are re-suspended in GIBCO® RECOVERY™ Cell Culture Freezing Medium (Invitrogen 12648-010) at 2-5×10^6 cells/mL and then aliquoted at 1 mL volumes into cryovials. Cryovials are stored initially at −80° C. for 16 hours, and then transferred to liquid nitrogen for long term storage.
# One day before the planned initiation of compound treatment portion of the assay, one vial of assay ready frozen cells is thawed, and the cells are washed with 50 mL of growth medium. Cells are counted and then diluted to 2.8×10^4 cells/mL and then plated at a rate of 2500 cells/well (90 μL per well) to BD Poly-D-Lysine, 96 well black plates (BD Biocoat 35-4640). Plates are then covered and incubated overnight under 5% CO2 at 37° C. The next day in a separate plate (V bottom Nunc 249946), a ten-point compound dilution series for each compound is prepared in growth media containing 2% DMSO (v/v, 0.2% final) with or without 100 mM NAM (10 mM final). Then 10 μL of compounds after a ten-point series dilution from either 2 or 0.1 μM (depending potency of each compound) to 50 pM or 5 pM (final) are added to the wells of the cell plates. Cell plates are covered and incubated for 72 hours under 5% CO2 at 37° C.
# On the day of the viability assessment, one vial of GF-AFC substrate (CELL TITER-FLUOR™ Cell Viability Assay Kit, Promega G6081) is vortexed and the substrate is transferred to one vial of thawed CELL TITER-FLUOR™ Assay Buffer. The resulting CELL TITER-FLUOR™ reagent is then vortexed well to thoroughly dissolve the substrate. The CELL TITER-FLUOR™ reagent is then diluted (1:2) in growth medium and 50 μL of diluted CELL TITER-FLUOR™ reagent is added to each well of the cell plate. The cell plate is covered and incubated under 5% CO2 at 37° C. for 1-3 hours. Finally the cell plates are removed from the incubator and the well fluorescence is measured on an Envision® Multilabel Reader (Perkin Elmer, λeX 355/λem 495). Fluorescence from compound treated wells is compared to the no cell and no compound treatment control wells to calculate percent inhibition. The percent inhibition and ten-point compound concentration data is fit to a four-parameter logistic equation using ACTIVITYBASE 4.0 Equation 205. Each compound is tested 2-4 times in this assay.
SMILES,T/C (tumor volume of treatment group divided by vehicle control group) (H1155 tumor model; 10 mg/kg BID oral),T/C (tumor volume of treatment group divided by vehicle control group) (H1155 tumor model; 20 mg/kg BID oral),IC50 (A2780 cells),T/C (tumor volume of treatment group divided by vehicle control group) (H1155 tumor model; 8 mg/kg BID oral),T/C (tumor volume of treatment group divided by vehicle control group) (H1155 tumor model; 16 mg/kg BID oral)
"CC(C)(O)CS(=O)(=O)Nc1ccc2c(c1)CCN(C(=O)COc1cccnc1)C2 [Example 1, 2-Hydroxy-2-methyl-N-[2-[2-(3-pyridyloxy)acetyl]-3,4-dihydro-1H-isoquinolin-6-yl]propane-1-sulfonamide]",5.5%,−81.1%,> 100 nM,–,–
"COCCS(=O)(=O)Nc1ccc2c(c1)CCN(C(=O)COc1cccnc1)C2 [Example 2, 2-Methoxy-N-[2-[2-(3-pyridyloxy)acetyl]-3,4-dihydro-1H-isoquinolin-6-yl]ethanesulfonamide]",–,–,> 100 nM,5.2%,−82.7%
